Test results published in patent US6737383B1, “Herbicidal oxadiazolidines” (priority 1999, dated 2004).

Key:
bedstraw = test: Test B pre/postemergence bedstraw; type: in vivo, Galium aparine; conditions: for Bedstraw plant response rating: scale of 0 to 10 where 0 is no effect and 10 is complete control
Outline: (§1)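 Test chemicals in a non-phytotoxic solvent mixture with surfactant were sprayed preemergence onto planted seeds and postemergence onto plants 2 to 18 cm tall (1- to 4-leaf stage). After twelve to sixteen days in a greenhouse, injury was visually rated against untreated controls from 0 (no effect) to 10 (complete control).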

blackgrass = test: Test B pre/postemergence blackgrass; type: in vivo, Alopecurus myosuroides; conditions: for Blackgrass plant response rating: scale of 0 to 10 where 0 is no effect and 10 is complete control
Outline: as §1

surinam grass = test: Test B pre/postemergence surinam grass; type: in vivo, Brachiaria decumbens; conditions: for B. signalgrass plant response rating: scale of 0 to 10 where 0 is no effect and 10 is complete control
Outline: as §1

cocklebur = test: Test B pre/postemergence cocklebur; type: in vivo, Xanthium strumarium; conditions: for Cocklebur plant response rating: scale of 0 to 10 where 0 is no effect and 10 is complete control
Outline: as §1

corn = test: Test B pre/postemergence corn; type: in vivo, Zea mays; conditions: for Corn plant response rating: scale of 0 to 10 where 0 is no effect and 10 is complete control
Outline: as §1

crabgrass = test: Test B pre/postemergence crabgrass; type: in vivo, Digitaria sanguinalis; conditions: for Crabgrass plant response rating: scale of 0 to 10 where 0 is no effect and 10 is complete control
Outline: as §1

giant foxtail = test: Test B pre/postemergence giant foxtail; type: in vivo, Setaria faberii; conditions: for Giant foxtail plant response rating: scale of 0 to 10 where 0 is no effect and 10 is complete control
Outline: as §1

morningglory = test: Test B pre/postemergence morningglory; type: in vivo, Ipomoea hederacea; conditions: for Morningglory plant response rating: scale of 0 to 10 where 0 is no effect and 10 is complete control
Outline: as §1

pigweed = test: Test B pre/postemergence pigweed; type: in vivo, Amaranthus retroflexus; conditions: for Redroot pigweed plant response rating: scale of 0 to 10 where 0 is no effect and 10 is complete control
Outline: as §1

rape = test: Test B pre/postemergence rape; type: in vivo, Brassica napus; conditions: for Rape plant response rating: scale of 0 to 10 where 0 is no effect and 10 is complete control
Outline: as §1

soybean = test: Test B pre/postemergence soybean; type: in vivo, Glycine max; conditions: for Soybean plant response rating: scale of 0 to 10 where 0 is no effect and 10 is complete control
Outline: as §1

sugar beet = test: Test B pre/postemergence sugar beet; type: in vivo, Beta vulgaris; conditions: for Sugarbeets plant response rating: scale of 0 to 10 where 0 is no effect and 10 is complete control
Outline: as §1

velvetleaf = test: Test B pre/postemergence velvetleaf; type: in vivo, Abutilon theophrasti; conditions: for Velvetleaf plant response rating: scale of 0 to 10 where 0 is no effect and 10 is complete control
Outline: as §1

wheat = test: Test B pre/postemergence wheat; type: in vivo, Triticum aestivum; conditions: for Wheat plant response rating: scale of 0 to 10 where 0 is no effect and 10 is complete control
Outline: as §1

wild oat = test: Test B pre/postemergence wild oat; type: in vivo, Avena fatua; conditions: for Wild oats plant response rating: scale of 0 to 10 where 0 is no effect and 10 is complete control
Outline: as §1

purple nutsedge = test: Test B pre/postemergence purple nutsedge; type: in vivo, Cyperus rotundus; conditions: for Nutsedge plant response rating: scale of 0 to 10 where 0 is no effect and 10 is complete control
Outline: as §1

[1] = Postemergence, Rate 125 g/ha, scale 0 to 10, 0 is no effect, 10 is complete control
[2] = Postemergence, Rate 250 g/ha, scale 0 to 10, 0 is no effect, 10 is complete control
[3] = Preemergence, Rate 62 g/ha, scale 0 to 10 (0 no effect, 10 complete control)
[4] = Rate 500 g/ha, Postemergence, scale 0 to 10, 0 no effect, 10 complete control

## CC(C)N(C(=O)n1oc(=O)n(C2(C)CC2)c1=O)c1ccc(F)cc1F [Compound 363]
bedstraw; [1]
  Plant response rating, Bedstraw: 4
bedstraw; [2]
  Plant response rating, Bedstraw: 7
bedstraw; [3]
  Plant response rating, Bedstraw: 9
bedstraw; Preemergence, Rate 125 g/ha
  Bedstraw plant response rating (0 to 10 scale): 9
bedstraw; Preemergence, Rate 250 g/ha
  Bedstraw plant response rating: 10
bedstraw; Preemergence, Rate 500 g/ha
  Bedstraw plant response rating: 10
bedstraw; Rate 62 g/ha, Postemergence
  Bedstraw plant response rating: 4
bedstraw; [4]
  Plant response rating, Bedstraw: 9
blackgrass; [1]
  Plant response rating, Blackgrass: 7
blackgrass; [2]
  Plant response rating, Blackgrass: 7
blackgrass; [3]
  Plant response rating, Blackgrass: 8
blackgrass; Preemergence, Rate 125 g/ha
  Blackgrass plant response rating (0 to 10 scale): 10
blackgrass; Preemergence, Rate 250 g/ha
  Blackgrass plant response rating: 10
blackgrass; Preemergence, Rate 500 g/ha
  Blackgrass plant response rating: 10
blackgrass; Rate 62 g/ha, Postemergence
  Blackgrass plant response rating: 5
blackgrass; [4]
  Plant response rating, Blackgrass: 8
Surinam grass; [1]
  Plant response rating, B. signalgrass: 0
Surinam grass; [2]
  Plant response rating, B. signalgrass: 1
Surinam grass; [3]
  Plant response rating, B. signalgrass: 3
Surinam grass; Preemergence, Rate 125 g/ha
  B. signalgrass plant response rating (0 to 10 scale, 0 is no effect, 10 is complete control): 3
Surinam grass; Preemergence, Rate 250 g/ha
  B. signalgrass plant response rating: 5
Surinam grass; Preemergence, Rate 500 g/ha
  B. signalgrass plant response rating: 6
Surinam grass; Rate 62 g/ha, Postemergence
  B. signalgrass plant response rating: 0
Surinam grass; [4]
  Plant response rating, B. signalgrass: 5
cocklebur; [1]
  Plant response rating, Cocklebur: 0
cocklebur; [2]
  Plant response rating, Cocklebur: 2
cocklebur; [3]
  Plant response rating, Cocklebur: 0
cocklebur; Preemergence, Rate 125 g/ha
  Cocklebur plant response rating (0 to 10 scale): 0
cocklebur; Preemergence, Rate 250 g/ha
  Cocklebur plant response rating: 0
cocklebur; Preemergence, Rate 500 g/ha
  Cocklebur plant response rating: 0
cocklebur; Rate 62 g/ha, Postemergence
  Cocklebur plant response rating: 0
cocklebur; [4]
  Plant response rating, Cocklebur: 2
corn; [1]
  Plant response rating, Corn: 0
corn; [2]
  Plant response rating, Corn: 2
corn; [3]
  Plant response rating, Corn: 0
corn; Preemergence, Rate 125 g/ha
  Corn plant response rating (0 to 10 scale): 0
corn; Preemergence, Rate 250 g/ha
  Corn plant response rating: 3
corn; Preemergence, Rate 500 g/ha
  Corn plant response rating: 7
corn; Rate 62 g/ha, Postemergence
  Corn plant response rating: 0
corn; [4]
  Plant response rating, Corn: 6
crabgrass; [1]
  Plant response rating, Crabgrass: 2
crabgrass; [2]
  Plant response rating, Crabgrass: 5
crabgrass; [3]
  Plant response rating, Crabgrass: 3
crabgrass; Preemergence, Rate 125 g/ha
  Crabgrass plant response rating (0 to 10 scale): 7
crabgrass; Preemergence, Rate 250 g/ha
  Crabgrass plant response rating: 7
crabgrass; Preemergence, Rate 500 g/ha
  Crabgrass plant response rating: 9
crabgrass; Rate 62 g/ha, Postemergence
  Crabgrass plant response rating: 1
crabgrass; [4]
  Plant response rating, Crabgrass: 9
Giant foxtail; [1]
  Plant response rating, Giant foxtail: 4
Giant foxtail; [2]
  Plant response rating, Giant foxtail: 9
Giant foxtail; Preemergence, Rate 125 g/ha
  Giant foxtail plant response rating (0 to 10 scale): 10
Giant foxtail; Preemergence, Rate 250 g/ha
  Giant foxtail plant response rating: 10
Giant foxtail; Preemergence, Rate 500 g/ha
  Giant foxtail plant response rating: 10
Giant foxtail; Rate 62 g/ha, Postemergence
  Giant foxtail plant response rating: 4
Giant foxtail; [4]
  Plant response rating, Giant foxtail: 9
morningglory; [1]
  Plant response rating, Morningglory: 1
morningglory; [2]
  Plant response rating, Morningglory: 1
morningglory; [3]
  Plant response rating, Morningglory: 0
morningglory; Preemergence, Rate 125 g/ha
  Morningglory plant response rating (0 to 10 scale): 0
morningglory; Preemergence, Rate 250 g/ha
  Morningglory plant response rating: 5
morningglory; Preemergence, Rate 500 g/ha
  Morningglory plant response rating: 6
morningglory; Rate 62 g/ha, Postemergence
  Morningglory plant response rating: 1
morningglory; [4]
  Plant response rating, Morningglory: 3
pigweed; [1]
  Plant response rating, Redroot pigweed: 0
pigweed; [2]
  Plant response rating, Redroot pigweed: 2
pigweed; [3]
  Plant response rating, Redroot pigweed: 2
pigweed; Preemergence, Rate 125 g/ha
  Redroot pigweed plant response rating (0 to 10 scale): 3
pigweed; Preemergence, Rate 250 g/ha
  Redroot pigweed plant response rating: 7
pigweed; Preemergence, Rate 500 g/ha
  Redroot pigweed plant response rating: 10
pigweed; Rate 62 g/ha, Postemergence
  Redroot pigweed plant response rating: 0
pigweed; [4]
  Plant response rating, Redroot pigweed: 5
rape; [1]
  Plant response rating, Rape: 0
rape; [2]
  Plant response rating, Rape: 0
rape; [3]
  Plant response rating, Rape: 0
rape; Preemergence, Rate 125 g/ha
  Rape plant response rating (0 to 10 scale): 1
rape; Preemergence, Rate 250 g/ha
  Rape plant response rating: 3
rape; Preemergence, Rate 500 g/ha
  Rape plant response rating: 5
rape; Rate 62 g/ha, Postemergence
  Rape plant response rating: 0
rape; [4]
  Plant response rating, Rape: 2
soybean; [1]
  Plant response rating, Soybean: 5
soybean; [2]
  Plant response rating, Soybean: 6
soybean; [3]
  Plant response rating, Soybean: 0
soybean; Preemergence, Rate 125 g/ha
  Soybean plant response rating (0 to 10 scale): 0
soybean; Preemergence, Rate 250 g/ha
  Soybean plant response rating: 0
soybean; Preemergence, Rate 500 g/ha
  Soybean plant response rating: 0
soybean; Rate 62 g/ha, Postemergence
  Soybean plant response rating: 4
soybean; [4]
  Plant response rating, Soybean: 7
Sugar beet; [1]
  Plant response rating, Sugarbeets: 1
Sugar beet; [2]
  Plant response rating, Sugarbeets: 3
Sugar beet; [3]
  Plant response rating, Sugarbeets: 0
Sugar beet; Preemergence, Rate 125 g/ha
  Sugarbeets plant response rating (0 to 10 scale): 4
Sugar beet; Preemergence, Rate 250 g/ha
  Sugarbeets plant response rating: 7
Sugar beet; Preemergence, Rate 500 g/ha
  Sugarbeets plant response rating: 8
Sugar beet; Rate 62 g/ha, Postemergence
  Sugarbeets plant response rating: 0
Sugar beet; [4]
  Plant response rating, Sugarbeets: 3
velvetleaf; [1]
  Plant response rating, Velvetleaf: 0
velvetleaf; [2]
  Plant response rating, Velvetleaf: 3
velvetleaf; [3]
  Plant response rating, Velvetleaf: 1
velvetleaf; Preemergence, Rate 125 g/ha
  Velvetleaf plant response rating (0 to 10 scale): 5
velvetleaf; Preemergence, Rate 250 g/ha
  Velvetleaf plant response rating: 6
velvetleaf; Preemergence, Rate 500 g/ha
  Velvetleaf plant response rating: 7
velvetleaf; Rate 62 g/ha, Postemergence
  Velvetleaf plant response rating: 0
velvetleaf; [4]
  Plant response rating, Velvetleaf: 6
wheat; [1]
  Plant response rating, Wheat: 4
wheat; [2]
  Plant response rating, Wheat: 5
wheat; [3]
  Plant response rating, Wheat: 3
wheat; Preemergence, Rate 125 g/ha
  Wheat plant response rating (0 to 10 scale): 5
wheat; Preemergence, Rate 250 g/ha
  Wheat plant response rating: 6
wheat; Preemergence, Rate 500 g/ha
  Wheat plant response rating: 7
wheat; Rate 62 g/ha, Postemergence
  Wheat plant response rating: 0
wheat; [4]
  Plant response rating, Wheat: 6
Wild oat; [1]
  Plant response rating, Wild oats: 0
Wild oat; [2]
  Plant response rating, Wild oats: 1
Wild oat; [3]
  Plant response rating, Wild oats: 5
Wild oat; Preemergence, Rate 125 g/ha
  Wild oats plant response rating (0 to 10 scale): 9
Wild oat; Preemergence, Rate 250 g/ha
  Wild oats plant response rating: 10
Wild oat; Preemergence, Rate 500 g/ha
  Wild oats plant response rating: 10
Wild oat; Rate 62 g/ha, Postemergence
  Wild oats plant response rating: 0
Wild oat; [4]
  Plant response rating, Wild oats: 7
Purple nutsedge; [1]
  Plant response rating, Nutsedge: 0
Purple nutsedge; [2]
  Plant response rating, Nutsedge: 0
Purple nutsedge; [3]
  Plant response rating, Nutsedge: 0
Purple nutsedge; Preemergence, Rate 125 g/ha
  Nutsedge plant response rating (0 to 10 scale): 0
Purple nutsedge; Preemergence, Rate 250 g/ha
  Nutsedge plant response rating: 0
Purple nutsedge; Preemergence, Rate 500 g/ha
  Nutsedge plant response rating: 2
Purple nutsedge; Rate 62 g/ha, Postemergence
  Nutsedge plant response rating: 0
Purple nutsedge; [4]
  Plant response rating, Nutsedge: 0
